# According to US6352834B1, “Prostate cancer assays and related methods” (University of Iowa Research Foundation, priority 1998, dated 2002):
# Tests used:
# transferrin receptor = transferrin receptor (Homo sapiens, UniProt P02786); settings: Forsbeck et al.; cited from earlier work
# LNCaP cells [1] = test: PSA assay on tissue culture supernatants of LNCaP cells cultured with iron chelator; assay type: cell-based; settings: for Molecules PSA Per Viable Cell / Total PSA / Molecules PSA Per Cell: 72 Hrs; for Total PSA: from 3.0 ml supernatant per well; for Molecules PSA Per Cell: total cells recovered
# Description: (§1) Comment: Table 2 is data from one of three similar experiments in which cells were cultured for 72 hours following the methods described in the proposal (i.e., cells in 6-well plates for PSA studies and cells in 96-well plates for thymidine incorporation, both at the same cell concentration). […] For viable cells, the per cell production of PSA rose 33.6% (column 8: PSA value of 1.5×10E7 molecules per cell divided by control value of 1.13×10E7). […]
# LNCaP cells [2] = test: Thymidine (3H) incorporation, LNCaP cells in 96-well plates; assay type: cell-based; settings: Homo sapiens, read-out: % Inhibition 3H
# Description: Comment: Table 2 is data from one of three similar experiments in which cells were cultured for 72 hours following the methods described in the proposal (i.e., cells in 6-well plates for PSA studies and cells in 96-well plates for thymidine incorporation, both at the same cell concentration). […] For viable cells, the per cell production of PSA rose 33.6% (column 8: PSA value of 1.5×10E7 molecules per cell divided by control value of 1.13×10E7).
# [3] = Cell counts and viability of LNCaP cells after culture with iron chelator; assay type: cell-based; settings: human, LNCaP cells
# Description: as §1
# LNCaP cells [4] = test: as above; assay type: cell-based; settings: 72 Hrs
# Description: as §1
# Sequence of transferrin receptor (P02786 whole entry): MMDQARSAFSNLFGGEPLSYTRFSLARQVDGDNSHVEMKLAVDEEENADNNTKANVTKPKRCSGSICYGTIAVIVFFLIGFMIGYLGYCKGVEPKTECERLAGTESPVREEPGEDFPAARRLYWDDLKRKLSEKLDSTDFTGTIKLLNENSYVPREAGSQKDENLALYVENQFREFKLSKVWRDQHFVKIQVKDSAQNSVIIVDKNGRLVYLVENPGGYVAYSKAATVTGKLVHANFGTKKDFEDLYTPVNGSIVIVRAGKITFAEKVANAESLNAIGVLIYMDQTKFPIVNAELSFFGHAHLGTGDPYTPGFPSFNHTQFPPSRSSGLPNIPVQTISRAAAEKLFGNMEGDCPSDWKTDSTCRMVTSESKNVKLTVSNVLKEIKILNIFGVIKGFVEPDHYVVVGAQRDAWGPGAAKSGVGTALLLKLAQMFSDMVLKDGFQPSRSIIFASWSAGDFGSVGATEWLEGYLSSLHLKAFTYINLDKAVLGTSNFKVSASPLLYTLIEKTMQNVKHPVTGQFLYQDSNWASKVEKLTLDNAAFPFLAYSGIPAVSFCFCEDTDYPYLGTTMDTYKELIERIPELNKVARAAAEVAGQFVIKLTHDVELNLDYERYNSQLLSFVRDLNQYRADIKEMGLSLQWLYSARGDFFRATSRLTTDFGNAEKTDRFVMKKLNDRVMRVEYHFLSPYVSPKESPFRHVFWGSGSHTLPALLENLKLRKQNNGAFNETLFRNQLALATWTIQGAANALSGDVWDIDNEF
compound,measurement,setting,value
Cc1ccc(C(=O)Nc2ccc(S(=O)(=O)O)c3cc(S(=O)(=O)O)cc(S(=O)(=O)O)c23)cc1NC(=O)c1cccc(NC(=O)Nc2cccc(C(=O)Nc3cc(C(=O)Nc4ccc(S(=O)(=O)O)c5cc(S(=O)(=O)O)cc(S(=O)(=O)O)c45)ccc3C)c2)c1 [suramin],binding of transferrin to its receptor,transferrin receptor,partially inhibit
"CC(=O)N(O)CCCCCNC(=O)CCC(=O)N(O)CCCCCNC(=O)CCC(=O)N(O)CCCCCN [Desferal, Deferoxamine]",rise in production of PSA per viable cell versus control,"LNCaP cells [1]; DFO 2.5 micrograms/ml, 72 hours",33.6%
same,Molecules PSA Per Viable Cell,LNCaP cells [1]; Desferal 0.1 ug/ml,1.28 × 10^7
same,Total PSA,LNCaP cells [1]; Desferal 0.1 ug/ml,710 ng
same,Molecules PSA Per Cell,LNCaP cells [1]; Desferal 0.1 ug/ml,1.20 × 10^7
same,Molecules PSA Per Viable Cell,LNCaP cells [1]; Desferal 0.25 ug/ml,1.30 × 10^7
same,Total PSA,LNCaP cells [1]; Desferal 0.25 ug/ml,710 ng
same,Molecules PSA Per Cell,LNCaP cells [1]; Desferal 0.25 ug/ml,1.22 × 10^7
same,Molecules PSA Per Viable Cell,LNCaP cells [1]; Desferal 0.50 ug/ml,1.14 × 10^7
same,Total PSA,LNCaP cells [1]; Desferal 0.50 ug/ml,650 ng
same,Molecules PSA Per Cell,LNCaP cells [1]; Desferal 0.50 ug/ml,1.06 × 10^7
same,Molecules PSA Per Viable Cell,LNCaP cells [1]; Desferal 1.0 ug/ml,1.12 × 10^7
same,Total PSA,LNCaP cells [1]; Desferal 1.0 ug/ml,644 ng
same,Molecules PSA Per Cell,LNCaP cells [1]; Desferal 1.0 ug/ml,1.04 × 10^7
same,Molecules PSA Per Viable Cell,LNCaP cells [1]; Desferal 2.0 ug/ml,1.41 × 10^7
same,Total PSA,LNCaP cells [1]; Desferal 2.0 ug/ml,642 ng
same,Molecules PSA Per Cell,LNCaP cells [1]; Desferal 2.0 ug/ml,1.32 × 10^7
same,Molecules PSA Per Viable Cell,LNCaP cells [1]; Desferal 2.5 ug/ml,1.51 × 10^7
same,Total PSA,LNCaP cells [1]; Desferal 2.5 ug/ml,627 ng
same,Molecules PSA Per Cell,LNCaP cells [1]; Desferal 2.5 ug/ml,1.42 × 10^7
same,Molecules PSA Per Viable Cell,LNCaP cells [1]; Desferal 3.0 ug/ml,1.59 × 10^7
same,Total PSA,LNCaP cells [1]; Desferal 3.0 ug/ml,587 ng
same,Molecules PSA Per Cell,LNCaP cells [1]; Desferal 3.0 ug/ml,1.45 × 10^7
same,Molecules PSA Per Viable Cell,LNCaP cells [1]; Desferal 4.0 ug/ml,1.80 × 10^7
same,Total PSA,LNCaP cells [1]; Desferal 4.0 ug/ml,611 ng
same,Molecules PSA Per Cell,LNCaP cells [1]; Desferal 4.0 ug/ml,1.54 × 10^7
same,inhibition at 0.1 µg/mL,LNCaP cells [2],1.8%
same,inhibition at 0.25 µg/mL,LNCaP cells [2],6.8%
same,inhibition at 0.5 µg/mL,LNCaP cells [2],7.4%
same,inhibition at 1 µg/mL,LNCaP cells [2],10.6%
same,inhibition at 2 µg/mL,LNCaP cells [2],21.1%
same,inhibition at 2.5 µg/mL,LNCaP cells [2],26.8%
same,inhibition at 3 µg/mL,LNCaP cells [2],40.3%
same,inhibition at 4 µg/mL,LNCaP cells [2],52.7%
same,"viability at 72 h, 0.1 ug/ml",[3]; Desferal 0.1 ug/ml,93%
same,"viability at 72 h, 0.25 ug/ml",[3]; Desferal 0.25 ug/ml,93.8%
same,"viability at 72 h, 0.5 ug/ml",[3]; Desferal 0.50 ug/ml,93.4%
same,"viability at 72 h, 1 ug/ml",[3]; Desferal 1.0 ug/ml,92.2%
same,"viability at 72 h, 2 ug/ml",[3]; Desferal 2.0 ug/ml,98.3%
same,"viability at 72 h, 2.5 ug/ml",[3]; Desferal 2.5 ug/ml,94.3%
same,"viability at 72 h, 3 ug/ml",[3]; Desferal 3.0 ug/ml,90.9%
same,"viability at 72 h, 4 ug/ml",[3]; Desferal 4.0 ug/ml,85.4%
same,Total Cells,LNCaP cells [4]; Desferal 0.1 ug/ml,1.09 × 10^6
same,Total Viable Cells,LNCaP cells [4]; Desferal 0.1 ug/ml,1.01 × 10^6
same,Total Cells,LNCaP cells [4]; Desferal 0.25 ug/ml,1.07 × 10^6
same,Total Viable Cells,LNCaP cells [4]; Desferal 0.25 ug/ml,1.00 × 10^6
same,Total Cells,LNCaP cells [4]; Desferal 0.50 ug/ml,1.13 × 10^6
same,Total Viable Cells,LNCaP cells [4]; Desferal 0.50 ug/ml,1.06 × 10^6
same,Total Cells,LNCaP cells [4]; Desferal 1.0 ug/ml,1.14 × 10^6
same,Total Viable Cells,LNCaP cells [4]; Desferal 1.0 ug/ml,1.05 × 10^6
same,Total Cells,LNCaP cells [4]; Desferal 2.0 ug/ml,.900 × 10^6
same,Total Viable Cells,LNCaP cells [4]; Desferal 2.0 ug/ml,840 × 10^6
same,Total Cells,LNCaP cells [4]; Desferal 2.5 ug/ml,.810 × 10^6
same,Total Viable Cells,LNCaP cells [4]; Desferal 2.5 ug/ml,.760 × 10^6
same,Total Cells,LNCaP cells [4]; Desferal 3.0 ug/ml,.744 × 10^6
same,Total Viable Cells,LNCaP cells [4]; Desferal 3.0 ug/ml,.680 × 10^6
same,Total Cells,LNCaP cells [4]; Desferal 4.0 ug/ml,.730 × 10^6
same,Total Viable Cells,LNCaP cells [4]; Desferal 4.0 ug/ml,.620 × 10^6
